Test results taken from patent US20250066423A1, “SESTRIN-MAPK COMPLEX INHIBITORS” (Sentcell Ltd, priority 2021, published 2025).

Experiments:
[1] = system: sMAC signalling (sestrin 1, 2 and 3 expression, AMPK and MAPK phosphorylation); assay: Immunoblot of sMAC signalling in CD4+ T cells treated with DOS compounds (heat-map); format: cell-based, human
Description: CD4+ T cells were isolated from PBMCs from healthy donors, treated with DOS compounds for 4 hours and harvested for immunoblot analysis. The heat-map of Sestrin 1, Sestrin 2, Sestrin 3, p-mTOR1, p-JNK, p-AMPK, p-ERK1/2, and p-p38, represents the mean of three to nine experiments. Histone 3 was used as a control.
• 1. CD4+ cells were separated from PBMC using appropriate microbeads kit (Miltenyi) • 2. Cells were resuspended in whole RPMI medium and plated in the 24-multiwell plate • 3. Then activated for 4 hrs with DOS compounds • 4. Cells were then harvested, washed with PBS and resuspended in lysis buffer (RIPA with […]) • 5. The cell-lysis mix was incubated for 20 mins on ice • 6. Samples were centrifuged for 20 mins at the max speed • 7. The supernatant was collected and Lemmli buffer+β-Mercaptoethanol was added • 8. Samples were then boiled for 5 mins at 95° C. • 9. Samples were loaded on the polyacrylamide gel and left to run in TRIS-Glycine-SDS running buffer • 10. Once the run was completed the proteins were transferred from the gel to the nitrocellulose membrane by using the Trans-Blot machine (Biorad) • 11. Membrane was washed with 0.1% Tween-TBS buffer and blocked in 5% non-fat milk for 1 hr • 12. Followed incubation with the primary antibody o.n. • 13. The day after, the membrane was washed with 0.1% Tween-TBS buffer for three times for at least 30 mins each • 14. Secondary antibody was then added for 1h • 15. The membrane was the washed with 0.1% Tween-TBS buffer for three times for at least 30 mins each • 16. The signal was developed using ECL solution
This was shown by downregulation of sestrin 1, 2 and 3 expression, and AMPK and MAPK phosphorylation.

[2] = system: H1N1 PR8/54; format: in vivo, mice; conditions: old mice, vaccination with DOS, H1N1 PR8/54
[3] = system: paediatric neuroblastoma cell line (sh-sy5y); assay: Cancer cell death by FACS live-dead staining; format: cell-based; conditions: 1 uM to 20 uM, 48 hours
Description: (§1) (Left) Immortalized paediatric neuroblastoma cell line (sh-sy5y) was treated at different concentrations of DOS46L and DOS144D (from 1 uM to 20 uM) for 48 hours, then analysed by FACS with live-dead staining. (Right) Breast cancer cell line (MCF-7) was treated at the fixed concentration of DOS46L and DOS144D (20 uM) for 48 hours, then analysed by FACS with live-dead dye staining. UN depicts untreated controls. Results of triplicate cultures are shown.

[4] = system: Breast cancer cell line (MCF-7); assay: Cancer cell death by FACS live-dead staining; format: cell-based; conditions: 20 uM, 48 hours
Description: as §1

[5] = target: T1, Sestrin 2 (Homo sapiens, UniProt P58004); assay: Streptavidin pull-down of biotinylated DOS46L with flag recombinant sestrins; format: binding; conditions: streptavidin immunoprecipitation
T1 sequence (P58004 1-480): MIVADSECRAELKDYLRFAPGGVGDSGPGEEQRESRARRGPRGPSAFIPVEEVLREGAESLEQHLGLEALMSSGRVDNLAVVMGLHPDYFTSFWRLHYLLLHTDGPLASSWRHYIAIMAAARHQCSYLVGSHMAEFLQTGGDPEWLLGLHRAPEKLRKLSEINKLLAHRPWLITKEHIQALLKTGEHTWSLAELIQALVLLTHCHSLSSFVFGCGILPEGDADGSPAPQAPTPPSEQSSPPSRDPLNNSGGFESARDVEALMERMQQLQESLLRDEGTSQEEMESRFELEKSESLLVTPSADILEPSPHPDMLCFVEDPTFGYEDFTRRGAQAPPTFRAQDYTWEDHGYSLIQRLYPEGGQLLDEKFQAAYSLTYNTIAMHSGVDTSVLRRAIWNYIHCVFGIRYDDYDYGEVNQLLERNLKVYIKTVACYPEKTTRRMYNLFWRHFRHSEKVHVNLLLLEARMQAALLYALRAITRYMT
Description: (§2) (A) Biotinylated DOS46L was mixed with flag recombinant Sestrins, immunoprecipitated with streptavidin and immunoblotted with flag Sestrins. […] Representative images from three experiments are shown. […] (D) DOS46L binds to the entire sMAC complex in CD4 T cells. CD4+ T cells were isolated from PBMCs from healthy donors and treated with biotinylated DOS46L compound (10 uM) for 4 hours. Cells were harvested for immunoprecipitation analysis.
(§3) The selective interaction was also studied using the cutting-edge […] algorithm for molecular docking predictions based on the deposited sestrin 2 crystal structure.

[6] = target: T2, sestrin 1 (Homo sapiens, UniProt Q9Y6P5); assay: as above; format: binding; conditions: streptavidin immunoprecipitation
T2 sequence (Q9Y6P5 1-492): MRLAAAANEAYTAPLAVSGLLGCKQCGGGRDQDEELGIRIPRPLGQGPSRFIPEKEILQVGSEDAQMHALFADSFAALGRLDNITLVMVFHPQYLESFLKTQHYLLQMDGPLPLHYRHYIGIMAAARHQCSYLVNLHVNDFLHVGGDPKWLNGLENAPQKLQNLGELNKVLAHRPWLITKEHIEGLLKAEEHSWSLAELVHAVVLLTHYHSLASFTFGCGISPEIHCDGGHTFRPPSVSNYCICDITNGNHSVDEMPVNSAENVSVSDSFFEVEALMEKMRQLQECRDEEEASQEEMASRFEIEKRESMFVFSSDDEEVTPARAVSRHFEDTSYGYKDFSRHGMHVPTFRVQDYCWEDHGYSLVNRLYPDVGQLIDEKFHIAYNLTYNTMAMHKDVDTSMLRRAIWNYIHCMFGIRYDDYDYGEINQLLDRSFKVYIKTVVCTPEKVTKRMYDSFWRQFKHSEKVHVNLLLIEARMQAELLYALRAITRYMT
Description: as §2, §3

[7] = target: T3, GATOR complex (WDR59 and mTOR) (Homo sapiens, UniProt P42345+Q6PJI9); assay: Pull-down of biotinylated DOS46L from CD4+ T cells; format: binding; conditions: 10 uM, 4 hours
T3 construct: endogenous in cells; host or cells: primary CD4+ T cells from PBMCs of healthy donors
Description: as §2
(§4) • 1. Cell pellet was lysed with 100 μL of denaturing lysis buffer • 2. Then mixed well by vortexing vigorously for 2-3 sec at maximum speed. • 3. Samples were then boiled at 95° C. for 5 min. • 4. Samples were then diluted 900 μl of non-denaturing lysis buffer and mixed gently. • 5. Cell lysates were then passed through a needle attached to a 1 ml syringe for 5-10 times or were sonicated. • 6. Incubated then on ice for 5 min • 7. Samples were pre-cleaned by spinning at the max speed at 4° C. for 20 min. • 8. Supernatants were collected in a new tube • 9. 7 ul (5 μg) of SESN2 (abcam) primary anti-body was added directly to the supernatant and incubated on the rota o.n. at 4° C. • 10. 200 ul of protein A/G beads were washed 4-5 times in IP buffer and blocked then o.n. in IP buffer with BSA and left on the rota at 4° C. • 11. The day after, 50 ul of protein A/G beads were added to the sample and incubated for 3 hrs on the rota at 4° C. • 12. […]

[8] = target: T4, sMAC (sestrin 1, 2, and 3, AMPK and MAPKs) (Homo sapiens, UniProt P58004+Q9Y6P5); assay: Pull-down of biotinylated DOS46L from CD4+ T cells; format: binding; conditions: 10 uM, 4 hours
T4 construct: endogenous in cells; host or cells: primary CD4+ T cells from PBMCs of healthy donors
T4 sequence (Q9Y6P5 1-492): T2 sequence (Q9Y6P5 1-492)
T4 sequence (P58004 1-480): T1 sequence (P58004 1-480)
T4 sequence (P58005 1-492 partner): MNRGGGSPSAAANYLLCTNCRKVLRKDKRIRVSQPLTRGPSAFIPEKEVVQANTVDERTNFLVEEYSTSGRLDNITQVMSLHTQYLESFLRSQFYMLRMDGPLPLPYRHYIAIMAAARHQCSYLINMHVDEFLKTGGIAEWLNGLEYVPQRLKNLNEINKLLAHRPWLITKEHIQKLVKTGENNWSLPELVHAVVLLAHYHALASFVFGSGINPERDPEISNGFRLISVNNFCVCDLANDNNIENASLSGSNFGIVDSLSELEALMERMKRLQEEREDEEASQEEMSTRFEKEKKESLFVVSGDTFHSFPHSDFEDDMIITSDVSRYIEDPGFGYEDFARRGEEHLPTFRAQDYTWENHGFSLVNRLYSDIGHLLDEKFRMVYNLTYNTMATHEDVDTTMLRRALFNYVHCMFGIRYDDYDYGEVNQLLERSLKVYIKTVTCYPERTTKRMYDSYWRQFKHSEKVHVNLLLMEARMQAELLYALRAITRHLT
Description: as §2, §4

[9] = target: T5, flag recombinant Sestrin 3 (UniProt P58005 1-492, limits assumed); assay: recombinant sestrins, precipitation and immunoblot (FIG. 8B-C)
T5 construct: also called flagged sestrin 3; not shown: flag tag
T5 sequence (looked up): T4 sequence (P58005 1-492 partner)

T3 sequence (Q6PJI9 whole entry, other chains not shown): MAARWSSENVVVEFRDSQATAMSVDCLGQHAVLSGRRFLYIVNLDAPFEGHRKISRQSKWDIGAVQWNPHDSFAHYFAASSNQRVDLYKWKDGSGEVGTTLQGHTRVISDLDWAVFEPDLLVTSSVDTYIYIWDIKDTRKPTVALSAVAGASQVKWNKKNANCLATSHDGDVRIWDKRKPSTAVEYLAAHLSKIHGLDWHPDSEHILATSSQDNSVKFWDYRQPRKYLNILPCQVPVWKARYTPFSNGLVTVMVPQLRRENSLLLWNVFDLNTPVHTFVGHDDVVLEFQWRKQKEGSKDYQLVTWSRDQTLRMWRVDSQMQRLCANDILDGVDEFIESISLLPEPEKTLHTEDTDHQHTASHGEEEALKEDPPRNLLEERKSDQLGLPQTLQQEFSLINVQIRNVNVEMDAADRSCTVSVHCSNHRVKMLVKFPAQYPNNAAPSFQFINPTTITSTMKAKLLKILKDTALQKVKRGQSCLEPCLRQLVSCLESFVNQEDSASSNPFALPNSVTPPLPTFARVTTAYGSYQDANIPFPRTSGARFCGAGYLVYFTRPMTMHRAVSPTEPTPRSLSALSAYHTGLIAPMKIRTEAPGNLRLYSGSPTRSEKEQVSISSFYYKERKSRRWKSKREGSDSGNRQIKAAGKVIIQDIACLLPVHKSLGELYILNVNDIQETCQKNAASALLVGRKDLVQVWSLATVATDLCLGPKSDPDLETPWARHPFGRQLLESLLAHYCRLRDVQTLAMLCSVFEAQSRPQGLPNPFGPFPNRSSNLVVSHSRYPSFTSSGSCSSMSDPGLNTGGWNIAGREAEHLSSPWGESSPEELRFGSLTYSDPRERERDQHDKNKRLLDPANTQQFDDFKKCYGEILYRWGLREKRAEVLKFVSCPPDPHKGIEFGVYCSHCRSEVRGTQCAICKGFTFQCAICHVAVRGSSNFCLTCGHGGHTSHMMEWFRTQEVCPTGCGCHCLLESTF

For CC(C)C[C@H]1NC(=O)[C@@H](CC(C)C)NC(=O)[C@@H](Cc2c[nH]c3ccccc23)NC(=O)[C@@H](CCC(=O)O)NC(=O)CNC1=O [DOS144D], the “effectiveness at sMAC inactivation among all of the DOS compounds tested” value [1] was “most effective”, the “sestrins inhibited (pan or selective inhibitor)” value ([1]; CD4+ T cells, 4 hours, FIG. 5 heat-map) was “inhibit all three sestrins” and the “survival data, comparison of compounds” value [2] was “similar”. The cancer cell death [3] was “induction of cancer cell death” and the cancer cell death [4] was “induction of cancer cell death”.

“biotinylated DOS46L: biotinylated variant of DOS46L used for pull-down (cyclo(AFIPV); also: biotinylated, site not given here)” was tested, and the “direct binding to sestrin 2” value [5] was “directly binds”, the “direct binding to sestrin 1” value [6] was “directly binds” and the “association with elements of the GATOR complex in cells” value [7] was “not with elements of the GATOR complex”. For the same molecule, the “association with sMAC in cells” value [8] was “found in the sMAC”.

B1: flag recombinant Sestrin 1 (other, UniProt Q9Y6P5 1-492, looked up)
chain: T2 sequence (Q9Y6P5 1-492)
notes: also called flagged sestrin 1; not shown: flag tag
B1: no binding [9].
